Reference: ChEMBL document CHEMBL1125171, “Approaches to isozyme-specific inhibitors. 17. Attachment of a selectivity-inducing substituent to a multisubstrate adduct. Implications for facilitated design of potent, isozyme-selective inhibitors” (J Med Chem, 1990)
pKi: −log10 of the molar value.

How the values were obtained:
[1] = Ratio of inhibitor constant for ATP substrate site of methionine adenosyl transferase and ATP substrate site of M-T variant methionine adenosyl transferase
[2] = Ratio of inhibitor constant for ATP substrate site of methionine adenosyl transferase and ATP substrate site of M-2 variant methionine adenosyl transferase
[3] = molecular target: S-adenosylmethionine synthase isoform type-2 (Rattus norvegicus) (UniProt P18298); experiment: Inhibition constants against Met (L-methionine)P substrate site of M-T (Novikoff Ascitic Hepatoma form) variant of rat Methionine adenosyltransferase
Chain of S-adenosylmethionine synthase isoform type-2 (Rattus norvegicus) (P18298 whole entry, looked up, stated change not applied, canonical isoform): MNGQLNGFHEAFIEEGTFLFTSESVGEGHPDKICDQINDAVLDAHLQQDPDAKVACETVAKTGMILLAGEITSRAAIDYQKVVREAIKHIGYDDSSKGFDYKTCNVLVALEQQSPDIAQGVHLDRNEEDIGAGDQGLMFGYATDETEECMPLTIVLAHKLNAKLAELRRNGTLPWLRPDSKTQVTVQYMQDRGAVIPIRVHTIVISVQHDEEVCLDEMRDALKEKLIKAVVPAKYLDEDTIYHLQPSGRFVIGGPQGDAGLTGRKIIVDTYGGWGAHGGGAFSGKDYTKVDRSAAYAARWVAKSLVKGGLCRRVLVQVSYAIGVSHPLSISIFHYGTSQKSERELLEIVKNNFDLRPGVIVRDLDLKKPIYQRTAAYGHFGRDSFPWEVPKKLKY

[4] = Ratio of inhibitor constant for Met substrate site of methionine adenosyl transferase and ATP substrate site of M-T variant methionine adenosyl transferase
[5] = Ratio of inhibitor constant for Met substrate site of methionine adenosyl transferase and ATP substrate site of M-2 variant methionine adenosyl transferase
[6] = molecular target: S-adenosylmethionine synthase isoform type-2 (Rattus norvegicus) (UniProt P18298); experiment: Inhibition constants against ATP substrate site of M-2 (kidney form) variant of rat Methionine adenosyltransferase
[7] = molecular target: S-adenosylmethionine synthase isoform type-2 (Rattus norvegicus) (UniProt P18298); experiment: Inhibition constants with Met (L-methionine) substrate site of M-2 (kidney form) variant of rat Methionine adenosyltransferase
[8] = molecular target: S-adenosylmethionine synthase isoform type-2 (Rattus norvegicus) (UniProt P18298); experiment: Inhibition constants against ATP substrate site of M-T (Novikoff Ascitic Hepatoma form) variant of rat Methionine adenosyltransferase

| Ratio [1] | Ratio [2] | pKi [3] | Ratio [4] | Ratio [5] | pKi [6] | pKi [7] | pKi [8] | SMILES |
| --- | --- | --- | --- | --- | --- | --- | --- | --- |
| 1270 | 1170 | 6.13 | 22 | 1.7 | 6.92 | 5.54 | 6.96 | CCCCSc1ncnc2c1ncn2[C@@H]1O[C@H]([C@H](CSCC[C@H](N)C(=O)O)OP(=O)(O)OP(=O)(O)NP(=O)(O)O)[C@@H](O)[C@H]1O |
| 670 | 1080 | 6.17 | 22 | 7.7 | 6.89 | 6.19 | 6.68 | Nc1ncnc2c1ncn2[C@@H]1O[C@H]([C@H](CSCCC(N)C(=O)O)OP(=O)(O)OP(=O)(O)NP(=O)(O)O)[C@@H](O)[C@H]1O (stereo not given in full) |
| 1.4 | 0.45 | – | – | – | 3.51 | – | 4.00 | CCCCSc1ncnc2c1ncn2[C@@H]1O[C@H](COP(=O)(O)OP(=O)(O)OP(=O)(O)O)[C@@H](O)[C@H]1O |
